The source of these data is PubChem BioAssay AID504820 (Southern Research Specialized Biocontainment Screening …, 2011).

Values joined by “and” are separate entries in the source; they are usually repeats but may differ in a detail not shown here. Equal values may be shown once. Active and inactive are the calls of the source. The rule behind the calls is not given here.

As a reminder, the IC50 is the point on the concentration scale where inhibition reaches its midpoint.

Tested on in the first test: not listed separately
Nature of the test: inhibition of RSV cytopathic effect in HEp-2, dose response, cell-based, synthesized compounds, set 8 (AID 504820). Conditions: HEp-2 cells, RSV cytopathic effect inhibition; at 50 µM (top of the series).
On to `CC(C)(C)NC(=O)[C@@H]1CCCN1S(=O)(=O)c1cccc2cccnc12`, for which the CPE inhibition is 1.38% (inactive).
For `Cc1ccc(C(C)C)cc1NC(=O)[C@@H]1CCCN1S(=O)(=O)c1cccc2cccnc12`, the CPE inhibition is 7.9% (inactive).
As for `COCCCNC(=O)c1ccc(Cn2c(=O)c3ccc(Br)cc3n(Cc3ccc(C)cc3)c2=O)cc1`, the CPE inhibition is 1.9% (inactive).
On to `Cc1ccc(NC(=O)[C@H]2CCCN2S(=O)(=O)c2cccc3cccnc23)c(C)c1`, for which the CPE inhibition was 26.6% (inactive).
For `Cc1ccc(Cl)c(NC(=O)[C@@H]2CCCN2S(=O)(=O)c2cccc3cccnc23)c1`, the CPE inhibition is 8.49% (inactive).
The same measure, in the same setting: with `O=C([C@@H]1CCCN1S(=O)(=O)c1cccc2cccnc12)N1CCOCC1` the figure was 1.71% (inactive); with `Cc1ccc(C(C)(C)C)cc1NC(=O)[C@@H]1CCCN1S(=O)(=O)c1cccc2cccnc12`, 2.81% (inactive); with `Cc1cc(C)cc(NC(=O)[C@@H]2CCCN2S(=O)(=O)c2cccc3cccnc23)c1`, 33.1% (inactive).
As to `O=C(Nc1ccccc1)[C@@H]1CCCN1S(=O)(=O)c1cccc2cccnc12`, the CPE inhibition was 12.2% (inactive).
As for `Cc1ncccc1NC(=O)[C@@H]1CCCN1S(=O)(=O)c1cccc2cccnc12`, the CPE inhibition was 3.67% (inactive).
Take `Cc1cccc(C)c1NC(=O)[C@@H]1CCCN1S(=O)(=O)c1cccc2cccnc12`: the CPE inhibition was 44.1% (inactive).
On the same count and under the same terms, for `Cc1ccc(NC(=O)[C@@H]2CCCN2S(=O)(=O)c2cccc3nonc23)c(C)c1` the value was 6.16% (inactive); for `Cc1ccc(NC(=O)C2CCCN2S(=O)(=O)c2ccc3ncccc3c2)c(C)c1` (configuration not stated), 1.75% (inactive); for `Cc1cc(NC(=O)[C@@H]2CCCN2S(=O)(=O)c2cccc3cccnc23)n(C(C)(C)C)n1`, 33.2% (inactive).
In the case of `Cc1ccc(Cn2c(=O)n(Cc3ccc(C(=O)Nc4nccs4)cc3)c(=O)c3ccccc32)cc1`, the CPE inhibition was 2.96% (inactive).
Still for that read-out and setting: with `Cc1ccc(NC(=O)C(C)NS(=O)(=O)c2cccc3cccnc23)c(C)c1` (configuration not stated) the figure was 4.35% (inactive); with `Cc1ccc(NC(=O)CN(C)S(=O)(=O)c2cccc3cccnc23)c(C)c1`, 46% (inactive).
Regarding `Cc1ccc(NC(=O)C2CCCN2S(=O)(=O)c2cccc3cnccc23)c(C)c1` (configuration not stated), the CPE inhibition was 3.25% (inactive).
`Cc1cccc(NC(=O)[C@@H]2CCCN2S(=O)(=O)c2cccc3cccnc23)c1`: the CPE inhibition is 12.8% (inactive).
For `COCCCNC(=O)c1ccc(Cn2c(=O)c3ccccc3n(C)c2=O)cc1`, the CPE inhibition is 19.2% (inactive).
`Cc1ccc(NC(=O)[C@@H]2CCCN2S(=O)(=O)c2cccc3cccnc23)c(C)n1`: the CPE inhibition was 4.2% (inactive).
Regarding `O=C(Nc1ccc(Cl)cc1Cl)[C@@H]1CCCN1S(=O)(=O)c1cccc2cccnc12`, the CPE inhibition was 2.1% (inactive).
As for `Cc1ccc(Cn2c(=O)n(Cc3ccc(C(=O)Nc4cc(C)nc5ccccc45)cc3)c(=O)c3ccccc32)cc1`, the CPE inhibition was 2.83% (inactive).
The same measure, in the same setting: for `Cc1ccc(NC(=O)C2CCCN2S(=O)(=O)c2ccccc2)c(C)c1` (configuration not stated) the value was 1.19% (inactive).
For the molecule `Cc1ccc(F)cc1NC(=O)[C@@H]1CCCN1S(=O)(=O)c1cccc2cccnc12`, the CPE inhibition is 10.8% (inactive).
Take `Cc1ccc(NC(=O)C2CCCN2S(C)(=O)=O)c(C)c1` (configuration not stated): the CPE inhibition was 2.52% (inactive).
On to `Cc1ccc(NC(=O)CNS(=O)(=O)c2cccc3cccnc23)c(C)c1`, for which the CPE inhibition is 4.34% (inactive).
For `Cc1ccc(C(F)(F)F)cc1NC(=O)[C@@H]1CCCN1S(=O)(=O)c1cccc2cccnc12`, the CPE inhibition is 15% (inactive).
As to `Cc1ccc(NC(=O)C2CCCN2S(=O)(=O)c2cccc3ccccc23)c(C)c1` (configuration not stated), the CPE inhibition is 1.6% (inactive).
Same read-out and setting: for `COc1ccc(C)cc1NC(=O)[C@@H]1CCCN1S(=O)(=O)c1cccc2cccnc12` the value was 4.82% (inactive).
For `COCCCNC(=O)c1ccc(Cn2c(=O)c3ccccc3n(Cc3cc(C)on3)c2=O)cc1`, the CPE inhibition is 6.33% (inactive).
On to `CCCn1c(=O)n(Cc2ccc(C(=O)NCCCOC)cc2)c(=O)c2ccccc21`, for which the CPE inhibition was 2.28% (inactive).
Still for that read-out and setting: for `Cc1ccc(NC(=O)[C@@H]2CCCN2S(=O)(=O)c2cccc3cccnc23)cc1` the value was 25.5% (inactive); for `Cc1ccc(NC(=O)C2CCCN2S(=O)(=O)c2cccc3cc(C)cnc23)c(C)c1` (configuration not stated), 11.1% (inactive).

The test system of the next test is HEp-2 cells, RSV cytopathic effect inhibition. The test is described as above.
Details: not given
Turning to `Cc1ccc(C)c(NC(=O)[C@@H]2CCCN2S(=O)(=O)c2cccc3cccnc23)c1`, the IC50 was 2.9 µM and 1.7 µM.
The same measure, in the same setting: for `COc1ccc(C)c(NC(=O)[C@@H]2CCCN2S(=O)(=O)c2cccc3cccnc23)c1` the value was 4.8 µM.
The same measure, in the same setting: for `CCc1ccccc1NC(=O)[C@@H]1CCCN1S(=O)(=O)c1cccc2cccnc12` the value was 20.8 µM.
On to `Cc1ccc(Cn2c(=O)n(Cc3ccc(C(=O)NC(C)(C)C)cc3)c(=O)c3ccccc32)cc1`, for which the concentration for half-maximal inhibition (IC50) was 1.25 µM.
Take `Cc1ccccc1NC(=O)[C@@H]1CCCN1S(=O)(=O)c1cccc2cccnc12`: the concentration for half-maximal inhibition (IC50) is 29 µM.
As for `COCCCNC(=O)c1ccc(Cn2c(=O)c3ccccc3n(Cc3ccc(C(F)(F)F)cc3)c2=O)cc1`, the half-maximal inhibitory concentration (IC50) is 1.4 µM.
`Cc1ccc(NC(=O)[C@@H]2CCCN2S(=O)(=O)c2cccc3cccnc23)c(C)c1`: the IC50 is 3 µM.
On to `COc1ccccc1CNC(=O)C1CCN(S(=O)(=O)c2cccc3nonc23)CC1`, for which the IC50 was 3.35 µM.
`COCCCNC(=O)c1ccc(Cn2c(=O)c3ccccc3n(Cc3ccc4nonc4c3)c2=O)cc1`: the IC50 is 4.7 µM.
Consider `COCCCNC(=O)c1ccc(Cn2c(=O)c3ccccc3n(Cc3ccc(C)c(C(F)(F)F)c3)c2=O)cc1`, for which the concentration for half-maximal inhibition (IC50) is 1.5 µM.
Consider `Cc1ccc(Cl)cc1NC(=O)[C@@H]1CCCN1S(=O)(=O)c1cccc2cccnc12`, for which the IC50 is 2.5 µM.
`CC(C)c1ccccc1NC(=O)[C@@H]1CCCN1S(=O)(=O)c1cccc2cccnc12`: the IC50 was 17.2 µM.
The same measure, in the same setting: with `Cc1ccc(NC(=O)C2CCCN2S(=O)(=O)c2cccc3cccnc23)c(C)c1` (configuration not stated) the figure was 12.6 µM.
On to `Cc1ccc(Cn2c(=O)n(Cc3ccc(C(=O)Nc4ccncc4)cc3)c(=O)c3ccccc32)cc1`, for which the IC50 is 2.65 µM.
Turning to `Cc1cccc(NC(=O)[C@@H]2CCCN2S(=O)(=O)c2cccc3cccnc23)c1C`, the IC50 is 8.9 µM.
The same measure, in the same setting: with `COCCCNC(=O)c1ccc(Cn2c(=O)c3ccccc3n(Cc3ccc([N+](=O)[O-])cc3)c2=O)cc1` the figure was 0.55 µM; with `COCCCNC(=O)c1ccc(Cn2c(=O)c3ccccc3n(Cc3ccc(OC)cc3)c2=O)cc1`, 2.3 µM; with `COCCCNC(=O)c1ccc(Cn2c(=O)c3ccccc3n(Cc3ccc(Br)cc3)c2=O)cc1`, 1.15 µM.
